The OligoGym collection
Bases are written 5' to 3'; sugars and linkages follow in the same order, as letters with counts (s phosphorothioate, o phosphodiester; PS: all linkages phosphorothioate). The collection does not say whether C is 5-methylated. l = locked nucleic acid (LNA); d = 2'-deoxy (DNA)

The sequences below were run against Tau (assay: rat primary cortical neurons, FLIPR, 25 uM ASO).
In the case of CGCCCCACTTTTAATT (sugars l3 d11 l2, PS), the calcium oscillation score is reported as 58.3 % of control. In the case of “ATACTCAAATTCTTCCTTT (sugars l3 d12 l4, PS)”, the calcium oscillation score is reported as 74 % of control. For GTTTGTAGACTATT (sugars l3 d8 l3, PS), the calcium oscillation score was 125 % of control. In the case of “GAAGTCCCGAGCCAAAGCCG (sugars l3 d14 l3, PS)”, the calcium oscillation score is reported as 5.18 % of control. For “ACCCCACATTTGCAAACC (sugars l2 d13 l3, PS)”, the calcium oscillation score was 46.2 % of control. With “GGCCTGATCACAAACCCTGC (sugars l3 d14 l3, PS)” the calcium oscillation score was 9.07 % of control. In the case of CTTCTGTCACTTATTTA (sugars l4 d9 l4, PS), the calcium oscillation score is reported as 46.9 % of control. In the case of ACCTCGTCAGCTAGCG (sugars l3 d10 l3, PS), the calcium oscillation score is reported as 65.2 % of control. For “CCAGGGAGGCAGACACCTCG (sugars l3 d14 l3, PS)”, the calcium oscillation score was 10.2 % of control. With AGGCATGATTGTGGGC (sugars l3 d10 l3, PS) the calcium oscillation score was 0 % of control. “ATGTTTTTTAACTCCCA (sugars l3 d11 l3, PS)” was tested, and the calcium oscillation score was 83.5 % of control. With CAGCTAGCGTGGCGAG (sugars l3 d10 l3, PS) the calcium oscillation score was 0 % of control. For CCATGTCGATGCTGC (sugars l3 d9 l3, PS), the calcium oscillation score was 7.14 % of control. With CAGCTATACTATTTCA (sugars l4 d10 l2, PS) the calcium oscillation score was 60.2 % of control. For “TTAACTCAAATCAATTCTCA (sugars l4 d12 l4, PS)”, the calcium oscillation score was 62 % of control. With “ATTGTCCAGGGACCCAATCT (sugars l3 d14 l3, PS)” the calcium oscillation score was 50.9 % of control. For “CACTCAAGAAATGGTTTGCT (sugars l3 d14 l3, PS)”, the calcium oscillation score was 9.52 % of control. “GTCCAGGGACCCAATCTTCG (sugars l3 d14 l3, PS)” was tested, and the calcium oscillation score was 0 % of control. For TGATCACCCTAAACCA (sugars l3 d10 l3, PS), the calcium oscillation score was 118 % of control. With ACTGGTTAGCCCTAAA (sugars l3 d10 l3, PS) the calcium oscillation score was 3.83 % of control. CCAATACTAGATCTAT (sugars l4 d8 l4, PS) was tested, and the calcium oscillation score was 64.7 % of control. ACAGCCTCATAAACCT (sugars l4 d10 l2, PS) was tested, and the calcium oscillation score was 66.8 % of control. “TTTTATTTCCTCCGCCA (sugars l2 d13 l2, PS)” was tested, and the calcium oscillation score was 18.5 % of control. With “TCCACAAACCAACTCAACA (sugars l2 d13 l4, PS)” the calcium oscillation score was 102 % of control. “TCCCAAATTCCTCATAATCC (sugars l2 d16 l2, PS)” was tested, and the calcium oscillation score was 64.5 % of control. For “CTAATGAGCCACACTTGGAG (sugars l3 d14 l3, PS)”, the calcium oscillation score was 46.5 % of control. For “AAAATCCTTAATTTAACCAC (sugars l4 d12 l4, PS)”, the calcium oscillation score was 64 % of control. In the case of “GCTCAGCTAAGACCCTCAGG (sugars l3 d14 l3, PS)”, the calcium oscillation score is reported as 29.4 % of control. For TTCTCTAATTGTCCAAT (sugars l4 d9 l4, PS), the calcium oscillation score was 64 % of control. For “ATTAACATATTTTTACCTA (sugars l4 d11 l4, PS)”, the calcium oscillation score was 65.3 % of control. With TCTACCATGTCGATGC (sugars l3 d10 l3, PS) the calcium oscillation score was 51.8 % of control. With “CTTTCATCTACTTTTCAG (sugars l3 d12 l3, PS)” the calcium oscillation score was 70.8 % of control. With “AAGTCCCGAGCCAAAGCCGA (sugars l3 d14 l3, PS)” the calcium oscillation score was 0 % of control. For “CTATTCCTGAATTTTTC (sugars l4 d10 l3, PS)”, the calcium oscillation score was 69 % of control. “CCCTGAAACCATTAACT (sugars l3 d12 l2, PS)” was tested, and the calcium oscillation score was 69 % of control. “CAACTGATTCCATCACC (sugars l4 d11 l2, PS)” was tested, and the calcium oscillation score was 87.8 % of control. For “TACTAGCCCACCCATCAATT (sugars l3 d14 l3, PS)”, the calcium oscillation score was 54.4 % of control. For “CTACTTTATTCCCTTAAC (sugars l4 d11 l3, PS)”, the calcium oscillation score was 91.3 % of control. For “CTCATCAACACCTTTTAATT (sugars l4 d14 l2, PS)”, the calcium oscillation score was 78.7 % of control. GCAGAGGAACGTGTGG (sugars l3 d10 l3, PS) was tested, and the calcium oscillation score was 0 % of control. CACTGTTACACATTTA (sugars l4 d8 l4, PS) was tested, and the calcium oscillation score was 70.6 % of control. TTTGTAGACTATTT (sugars l3 d8 l3, PS) was tested, and the calcium oscillation score was 90.7 % of control. With “AGGTATCCAGCCATATTTCA (sugars l3 d14 l3, PS)” the calcium oscillation score was 20.2 % of control. With GTGATATTGTCCAGGG (sugars l3 d10 l3, PS) the calcium oscillation score was 14.8 % of control. For TAAAGTCCCAGGTC (sugars l3 d8 l3, PS), the calcium oscillation score was 72.4 % of control. CCAGATTCCCCAACTC (sugars l2 d12 l2, PS) was tested, and the calcium oscillation score was 73.3 % of control. In the case of “TATTTCCAAATTCACTTTTA (sugars llddlldddddddddldlll, PS)”, the calcium oscillation score is reported as 120 % of control. In the case of “TTAATTATTAAATCTTCTCT (sugars l4 d12 l4, PS)”, the calcium oscillation score is reported as 60.1 % of control. For ACCCTTAGACATAACA (sugars l4 d10 l2, PS), the calcium oscillation score was 75.1 % of control. For “TTCCTGGCCATCTTATGCTG (sugars l3 d14 l3, PS)”, the calcium oscillation score was 22 % of control. For “AAAATATCCTTACCATCC (sugars l4 d10 l4, PS)”, the calcium oscillation score was 70.2 % of control. For “AGGGACGTGGGTGATATTGT (sugars l3 d14 l3, PS)”, the calcium oscillation score was 1.3 % of control. With “CACCCAAACTCCAAGTTC (sugars l4 d12 l2, PS)” the calcium oscillation score was 53.9 % of control. “TTTTACCAATTTGCCTA (sugars l2 d11 l4, PS)” was tested, and the calcium oscillation score was 46.2 % of control. In the case of “CTAGCCCACCCATCAATTTG (sugars l3 d14 l3, PS)”, the calcium oscillation score is reported as 0 % of control. With TGTGATGCAGGAGTT (sugars l3 d9 l3, PS) the calcium oscillation score was 70.5 % of control. With “TCATGAGCACTAACTCTAAG (sugars l3 d14 l3, PS)” the calcium oscillation score was 35.7 % of control. For TTAGCAGAGGAACGTG (sugars l3 d10 l3, PS), the calcium oscillation score was 25.9 % of control. In the case of “CCATCCTAAGTCAACCA (sugars l2 d13 l2, PS)”, the calcium oscillation score is reported as 62.8 % of control. With “TTCTAATTTAGTCACCA (sugars l3 d10 l4, PS)” the calcium oscillation score was 65.9 % of control. With “GGGTGATATTGTCCAGGGAC (sugars l3 d14 l3, PS)” the calcium oscillation score was 0 % of control. With ATCTTAGGCTGGCCC (sugars l3 d9 l3, PS) the calcium oscillation score was 50.6 % of control. For “CCCCACTTTTAATTAAATTT (sugars l3 d15 l2, PS)”, the calcium oscillation score was 97 % of control. With “TGCAAGAGTCACTGCACTGC (sugars l3 d14 l3, PS)” the calcium oscillation score was 23.8 % of control. With “TTTCCCCATTTATCCTTC (sugars l2 d14 l2, PS)” the calcium oscillation score was 49.4 % of control. For TGTAGACTATTTGCAC (sugars l3 d10 l3, PS), the calcium oscillation score was 93.3 % of control. “ATGACCTCAACTCTACCT (sugars l3 d13 l2, PS)” was tested, and the calcium oscillation score was 61 % of control. “TCAACATTACCCTTAAATAT (sugars l4 d13 l3, PS)” was tested, and the calcium oscillation score was 82.4 % of control. In the case of AGTGGAGCCGATCTTG (sugars l3 d10 l3, PS), the calcium oscillation score is reported as 0 % of control. In the case of “TGTCCTCACTTTACACAT (sugars l4 d12 l2, PS)”, the calcium oscillation score is reported as 39.8 % of control. TCAGGTCAACTGGTTT (sugars l3 d10 l3, PS) was tested, and the calcium oscillation score was 95.9 % of control. CTCTTAGCATCAGAGG (sugars l3 d10 l3, PS) was tested, and the calcium oscillation score was 70.4 % of control. In the case of CAGGCGCGAGCAGCGG (sugars l3 d10 l3, PS), the calcium oscillation score is reported as 49.5 % of control. With “TTTTAATTAAATTTCTCCCT (sugars l4 d13 l3, PS)” the calcium oscillation score was 104 % of control. With “TTTTCTCTCTTAACTTTATT (sugars l4 d12 l4, PS)” the calcium oscillation score was 89 % of control. In the case of “ATTTCCAAATTCACTTTTAC (sugars l5 d10 l5, PS)”, the calcium oscillation score is reported as ≥ 200 % of control. CCCACCAAAGACTTCA (sugars l2 d11 l3, PS) was tested, and the calcium oscillation score was 58.3 % of control. ACCTCCTGGTTTAT (sugars l3 d8 l3, PS) was tested, and the calcium oscillation score was 89.7 % of control. For “TTTAACTCAAATCAATTCTC (sugars l4 d12 l4, PS)”, the calcium oscillation score was 65.7 % of control. With CAGCCACTGTTGCCAC (sugars l2 d12 l2, PS) the calcium oscillation score was 51.2 % of control. With AAAGTACTATCCACTT (sugars l4 d8 l4, PS) the calcium oscillation score was 79.1 % of control. With “TCCCTTAACAATATGCT (sugars l2 d11 l4, PS)” the calcium oscillation score was 75.1 % of control. “ATCATAATCCTACCACCA (sugars l3 d13 l2, PS)” was tested, and the calcium oscillation score was 87.5 % of control. For ATGCAGGAGTTGTAAG (sugars l3 d10 l3, PS), the calcium oscillation score was 40.8 % of control. For “TAGACTCCTTCTTTAGGCTT (sugars l3 d14 l3, PS)”, the calcium oscillation score was 45.2 % of control. For GGTTTGTAGACTATT (sugars l3 d9 l3, PS), the calcium oscillation score was 0 % of control. In the case of GTCCCGAGCCAAAGC (sugars l3 d9 l3, PS), the calcium oscillation score is reported as 31.3 % of control. For AGAGGCACAAGTCCTT (sugars l3 d10 l3, PS), the calcium oscillation score was 78.1 % of control. With “CCACCTCCTGGTTTATGATG (sugars l3 d14 l3, PS)” the calcium oscillation score was 19.4 % of control. For GCGACTTGTACACGAT (sugars l3 d10 l3, PS), the calcium oscillation score was 32.2 % of control. For “GTCCACAAACCAACTCA (sugars l3 d11 l3, PS)”, the calcium oscillation score was 91.3 % of control. “ACAATTCTCAGCACACC (sugars l2 d11 l4, PS)” was tested, and the calcium oscillation score was 48.8 % of control. “TCCCCCAAAATATCTCAA (sugars l3 d13 l2, PS)” was tested, and the calcium oscillation score was 53.9 % of control. For AATTTCACCCTCAGTA (sugars l3 d10 l3, PS), the calcium oscillation score was 73 % of control. “ATATTCCACACATAAACAA (sugars l4 d11 l4, PS)” was tested, and the calcium oscillation score was 62.8 % of control. For “CTTTATTTCCAAATTCACT (sugars l5 d9 l1 d2 l2, PS)”, the calcium oscillation score was 104 % of control. For CCCAGCGTGATCTTCC (sugars l3 d10 l3, PS), the calcium oscillation score was 4.6 % of control. For TCCCAGCGTGATCT (sugars l3 d8 l3, PS), the calcium oscillation score was 3.83 % of control. For “TTGCAACTTTAACTCCA (sugars l4 d11 l2, PS)”, the calcium oscillation score was 80.8 % of control. With GCTTCCAGTCCCGTCT (sugars l3 d10 l3, PS) the calcium oscillation score was 104 % of control. In the case of “TATTTCCAAATTCACTTTTA (sugars llldlddddddddddldlll, PS)”, the calcium oscillation score is reported as 129 % of control. AATTATTTACACTGTCC (sugars l4 d9 l4, PS) was tested, and the calcium oscillation score was 55.6 % of control. “CCACCCAAACTCCAAGTT (sugars l2 d14 l2, PS)” was tested, and the calcium oscillation score was 52 % of control. In the case of “AGGCAAAGGTTTATCTTCCA (sugars l3 d14 l3, PS)”, the calcium oscillation score is reported as 33 % of control. For “CCCAGCGTGATCTTCCATCA (sugars l5 d11 l4, PS)”, the calcium oscillation score was 106 % of control. For ATCTCAAGTCTTATTCT (sugars l4 d9 l4, PS), the calcium oscillation score was 48.8 % of control. In the case of GCCTGATCACAAACCC (sugars l3 d10 l3, PS), the calcium oscillation score is reported as 144 % of control. With “CTCAACATTACCCTTAAATA (sugars l4 d14 l2, PS)” the calcium oscillation score was 57.6 % of control. With “GGCGACTTGTACACGATCTC (sugars l3 d14 l3, PS)” the calcium oscillation score was 46.6 % of control.
